Target: human CYP3A4 (Homo sapiens, UniProt P08684)
Test: In vitro evaluations of CYP3A4 metabolism and inhibition
Format: in vitro ADME

human CYP3A4, sequence (P08684 whole entry): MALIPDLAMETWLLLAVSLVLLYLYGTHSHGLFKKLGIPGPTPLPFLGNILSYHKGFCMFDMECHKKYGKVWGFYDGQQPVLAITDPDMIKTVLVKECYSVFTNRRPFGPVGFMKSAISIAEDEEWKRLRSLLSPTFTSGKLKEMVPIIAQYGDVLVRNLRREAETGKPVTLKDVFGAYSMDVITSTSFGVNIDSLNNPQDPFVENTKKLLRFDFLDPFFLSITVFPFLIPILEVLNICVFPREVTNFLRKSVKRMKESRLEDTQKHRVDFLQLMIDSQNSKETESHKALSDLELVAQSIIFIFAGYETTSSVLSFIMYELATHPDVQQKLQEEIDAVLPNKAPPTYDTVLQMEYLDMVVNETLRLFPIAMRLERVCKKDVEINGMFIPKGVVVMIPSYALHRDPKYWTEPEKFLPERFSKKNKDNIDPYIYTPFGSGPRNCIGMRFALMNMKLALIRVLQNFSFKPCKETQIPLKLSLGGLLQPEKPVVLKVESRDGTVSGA

SMILES: Cc1cnc(Nc2ccc(OCCN3CCCC3)cc2)nc1Nc1cccc(S(=O)(=O)NC(C)(C)C)c1 [N-tert-butyl-3-[(5-methyl-2-{[4-(2-pyrrolidin-1-ylethoxy)phenyl]amino}pyrimidin-4-yl)amino]benzenesulfonamide]
- CYP3A4 inhibition (in vitro data): inhibits CYP3A4 in a time-dependent fashion
- metabolism (in vitro evaluations): metabolized by human CYP3A4
